Each compound was assayed against T1, GST-tagged Tnks-2 (873-1166 aa) (Homo sapiens, UniProt Q9H2K2) (assay: TNKS2 activity ELISA (autoparsylation assay)). Settings: not given.
T1 construct: GST-tagged Tnks-2 (873-1166 aa, prepared in-house); made in house
T1 sequence (Q9H2K2 873-1166): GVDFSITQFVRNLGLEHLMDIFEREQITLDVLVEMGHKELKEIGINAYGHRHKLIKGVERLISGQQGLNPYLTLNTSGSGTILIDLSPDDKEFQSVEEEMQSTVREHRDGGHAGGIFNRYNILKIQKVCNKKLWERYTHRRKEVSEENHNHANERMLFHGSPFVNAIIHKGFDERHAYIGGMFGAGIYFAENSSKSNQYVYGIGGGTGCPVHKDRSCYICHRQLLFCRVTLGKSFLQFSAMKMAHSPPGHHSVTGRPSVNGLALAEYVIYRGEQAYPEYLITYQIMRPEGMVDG
Format: biochemical
Protocol: (§1) Description of the TNKS1 and TNKS2 ELISA Assay
(§2) Biochemical Activity Testing of TNKS 1 and 2: Activity ELISA (Autoparsylation Assay)
(§3) For analysis of autoparsylation activity of TNKS 1 and 2 an activity ELISA is performed: In the first step GST tagged TNKS is captured on a Glutathione coated plate. Then the activity assay with biotinylated NAD is performed in the absence/presence of the compounds. During the enzymatic reaction GST tagged TNKS transfers biotinylated ADP-ribose to itself from biotinylated NAD as co-substrate. For the detection streptavidin-HRP conjugate is added that binds to the biotinylated TNKS and is thereby captured to the plates. The amount of biotinylated resp. autoparsylated TNKS is detected with a luminescence substrate for HRP. The level of the luminescence signal correlates directly with the amount of autoparsylated TNKS and therefore with activity of TNKS.
(§4) The activity ELISA is performed in 384 well Glutathione coated microtiter plates (Express capture Glutathione coated plate, Biocat, Heidelberg, Germany). The plates are pre-equilibrated with PBS. Then the plates are incubated with 50 μl 20 ng/well GST-tagged Tnks-1 (1023-1327 aa, prepared in-house), respectively GST-tagged Tnks-2 (873-1166 aa, prepared in-house) in assay buffer (50 mM HEPES, 4 mM Mg-chloride, 0.05% Pluronic F-68, 2 mM DTT, pH 7.7) overnight at 4° C. The plates are washed 3 times with PBS-Tween-20. The wells are blocked by incubation at room temperature for 20 minutes with 50 μl blocking buffer (PBS, 0.05% Tween-20, 0.5% BSA). Afterwards the plates are washed 3 times with PBS-Tween-20. The enzymatic reaction is performed in 50 μl reaction solution (50 mM HEPES, 4 mM Mg-chloride, 0.05% Pluronic F-68, 1.4 mM DTT, 0.5% DMSO, pH 7.7) with 10 μM bio-NAD (Biolog, Life science Inst., Bremen, Germany) as co-substrate in the absence or presence of the test compound (10 dilution concentrations) for 1 hour at 30° C. The reaction is stopped by 3 times washing with PBS-Tween-20. For the detection 50 μl of 20 ng/μl Streptavidin, HRP conjugate (MoBiTec, Göttingen, Germany) in PBS/0.05% Tween-20/0.01% BSA are added and the plates are incubated for 30 minutes at room temperature. After three times washing with PBS-Tween-20 50 μl of SuperSignal ELISA Femto Maximum sensitivity substrate solution (ThermoFisherScientific (Pierce), Bonn, Germany) are added. Following a 1 minute incubation at room temperature luminescence signals are measured with an Envision multimode reader (Perkin Elmer LAS Germany GmbH) at 700 nm. The full value used is the inhibitor-free reaction. The pharmacological zero value used is XAV-939 (Tocris) in a final concentration of 5 μM. The inhibitory values (1050) are determined using either the program Symyx Assay Explorer® or Condosseo® from GeneData.
For CC(C)(C)c1ccc(-c2cn3nccc3c(=O)[nH]2)cc1 [Compound A15, 6-(4-tert-butyl-phenyl)-5H-pyrazolo[1,5-a]pyrazin-4-one], the IC50 was under 300 nM.
CC(C)(C)c1ccc(-c2cn3nc(CO)cc3c(=O)[nH]2)cc1 [Compound A18, 6-(4-tert-butyl-phenyl)-2-hydroxymethyl-5H-pyrazolo[1,5-a]pyrazin-4-one] showed an IC50 of under 300 nM.
In the case of Cc1cc2c(=O)[nH]c(-c3ccc(C(C)(C)C)cc3)cn2c1 [Compound A38, 3-(4-tert-butyl-phenyl)-7-methyl-2H-pyrrolo[1,2-a]pyrazin-1-one], the IC50 is reported as under 300 nM.

Each compound was assayed against T2, GST-tagged Tankyrase-2 (873-1166 aa) (Homo sapiens, UniProt Q9H2K2) (assay: Tankyrase 2 autoparsylation assay (HTRF enzyme assay)). Settings: not given.
T2 construct: GST-tagged Tankyrase-2 (873-1166 aa)
T2 sequence (Q9H2K2 873-1166): as above
Format: biochemical
Protocol: (§5) Biochemical Activity Testing of Tankyrase 1 and 2: Autoparsylation Assay
(§6) The autoparsylation assay is run in two steps: the enzymatic reaction in which GST-tagged Tankyrase-1, resp Tankyrase-2 transferred biotinylated ADP-ribose to itself from biotinylated NAD as co-substrate and the detection reaction where a time resolved FRET between cryptate labelled anti-GST bound to the GST tag of the enzyme and Xlent® labelled-streptavidin bound the biotin-parsylation residue is analysed. The autoparsylation activity was detectable directly via the increase in HTRF signal.
(§7) The autoparsylation assay is performed as 384-well HTRF® (Cisbio, Codolet, France) assay format in Greiner low volume nb 384-well microtiter plates and is used for high throughput screen. 250 nM GST-tagged Tankyrase-1 (1023-1327 aa), respectively about 250 nM GST-tagged Tankyrase-2 (873-1166 aa) and 5 μM bio-NAD (Biolog, Life science Inst., Bremen, Germany) as co-substrate are incubated in a total volume of 5 μl (50 mM HEPES, 4 mM Mg-chloride, 0.05% Pluronic F-68, 1.4 mM DTT, 0.5% DMSO, pH 7.7) in the absence or presence of the test compound (10 dilution concentrations) for 90 min at 30° C. The reaction is stopped by the addition of 1 μl 50 mM EDTA solution. 2 μl of the detection solution (1.6 μM SA-Xlent® (Cisbio, Codolet, France), 7.4 nM Anti-GST-K® (Eu-labelled anti-GST, Cisbio, Codolet, France) in 50 mM HEPES, 800 mM KF, 0.1% BSA, 20 mM EDTA, 0.1% CHAPS, pH 7.0) are added. After 1 h incubation at room temperature the HTRF is measured with an Envision multimode reader (Perkin Elmer LAS Germany GmbH) at excitation wavelength 340 nm (laser mode) and emission wavelengths 615 nm and 665 nm. The ratio of the emission signals is determined. The full value used is the inhibitor-free reaction. The pharmacological zero value used is XAV-939 (Tocris) in a final concentration of 5 μM. The inhibitory values (IC50) are determined using either the program Symyx Assay Explorer® or Condosseo® from GeneData.
CC(C)(C)c1ccc(-c2cn3nccc3c(=O)[nH]2)cc1 [Compound A15, 6-(4-tert-butyl-phenyl)-5H-pyrazolo[1,5-a]pyrazin-4-one] gave an IC50 of under 300 nM.
CC(C)(C)c1ccc(-c2cn3nc(CO)cc3c(=O)[nH]2)cc1 [Compound A18, 6-(4-tert-butyl-phenyl)-2-hydroxymethyl-5H-pyrazolo[1,5-a]pyrazin-4-one] was tested, and the IC50 was 300 to 3000 nM.

These compounds were tested on tankyrase 1/2 (assay: Cellular inhibition of Tankyrase: increase of Axin2 level in DLD1 cells (Luminex)). Settings: 24 hours, read-out: EC50 tankyrase 1/2 (cell assay).
Format: cell-based
Protocol: Measurement of Cellular Inhibition of Tankyrase
Since Tankyrases have been described to modulate cellular level of Axin2 (Huang et al., 2009; Nature) the increase of Axin2 level is used as read-out for determination of cellular inhibition of Tankyrases in a Luminex based assay.
Cells of the colon carcinoma cell line DLD1 are plated in 96 well plates with 1.5×10^4 cells per well. Next day, cells are treated with a serial dilution of test compound in seven steps as triplicates with a final DMSO concentration of 0.3%. After 24 hours, cells are lysed in lysis buffer (20 mM Tris/HCl pH 8.0, 150 mM NaCl, 1% NP40, 10% Glycerol) and lysates are cleared by centrifugation through a 96 well filter plate (0.65 μm). Axin2 protein is isolated from cell lysates by incubation with a monoclonal anti-Axin2 antibody (R&D Systems #MAB6078) that is bound to fluorescent carboxybeads. Then, bound Axin2 is specifically detected with a polyclonal anti-Axin2 antibody (Cell Signaling #2151) and an appropriate PE-fluorescent secondary antibody. The amount of isolated Axin2 protein is determined in a Luminex^200 machine (Luminex Corporation) according to the manufacturer's instruction by counting 100 events per well. Inhibition of Tankyrase by test compounds results in higher levels of Axin2 which directly correlates with an increase of detectable fluorescence. As controls cells are treated with solvent alone (neutral control) and with a Tankyrase reference inhibitor IWR-2 (3E-06 M) which refers as control for maximum increase of Axin2. For analysis, the obtained data are normalized against the untreated solvent control and fitted for determination of the EC50 values using the Assay Explorer software (Accelrys).
Compound CC(C)(C)c1ccc(-c2cn3nccc3c(=O)[nH]2)cc1 [Compound A15, 6-(4-tert-butyl-phenyl)-5H-pyrazolo[1,5-a]pyrazin-4-one] has an EC50 of under 300 nM.
For CC(C)(C)c1ccc(-c2cn3nc(CO)cc3c(=O)[nH]2)cc1 [Compound A18, 6-(4-tert-butyl-phenyl)-2-hydroxymethyl-5H-pyrazolo[1,5-a]pyrazin-4-one], the EC50 was 300 to 3000 nM.
For Cc1cc2c(=O)[nH]c(-c3ccc(C(C)(C)C)cc3)cn2c1 [Compound A38, 3-(4-tert-butyl-phenyl)-7-methyl-2H-pyrrolo[1,2-a]pyrazin-1-one], the EC50 was under 300 nM.

The compounds below were run against T3, GST-tagged Tankyrase-1 (1023-1327 aa) (Homo sapiens, UniProt O95271) (assay: Tankyrase 1 autoparsylation assay (HTRF enzyme assay)). Settings: not given.
T3 construct: GST-tagged Tankyrase-1 (1023-1327 aa)
T3 sequence (O95271 1023-1327): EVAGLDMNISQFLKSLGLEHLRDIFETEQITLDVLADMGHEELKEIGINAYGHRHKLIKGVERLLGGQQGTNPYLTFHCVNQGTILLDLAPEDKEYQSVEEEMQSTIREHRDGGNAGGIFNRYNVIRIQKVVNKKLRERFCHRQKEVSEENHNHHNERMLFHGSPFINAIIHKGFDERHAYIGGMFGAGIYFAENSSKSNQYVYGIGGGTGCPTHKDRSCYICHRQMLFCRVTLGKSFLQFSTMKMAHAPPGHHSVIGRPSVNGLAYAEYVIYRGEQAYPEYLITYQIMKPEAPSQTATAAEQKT
Format: biochemical
Protocol: as §5, §6, §7
With CC(C)(C)c1ccc(-c2cn3nccc3c(=O)[nH]2)cc1 [Compound A15, 6-(4-tert-butyl-phenyl)-5H-pyrazolo[1,5-a]pyrazin-4-one] the IC50 was under 300 nM.
Compound CC(C)(C)c1ccc(-c2cn3nc(CO)cc3c(=O)[nH]2)cc1 [Compound A18, 6-(4-tert-butyl-phenyl)-2-hydroxymethyl-5H-pyrazolo[1,5-a]pyrazin-4-one] has an IC50 of under 300 nM.

Each compound was assayed against T4, GST-tagged Tnks-1 (1023-1327 aa) (Homo sapiens, UniProt O95271) (assay: TNKS1 activity ELISA (autoparsylation assay)). Settings: not given.
T4 construct: GST-tagged Tnks-1 (1023-1327 aa, prepared in-house); made in house
T4 sequence (O95271 1023-1327): as above
Format: biochemical
Protocol: as §1, §2, §3, §4
Work on CC(C)(C)c1ccc(-c2cn3nccc3c(=O)[nH]2)cc1 [Compound A15, 6-(4-tert-butyl-phenyl)-5H-pyrazolo[1,5-a]pyrazin-4-one] yielded an IC50 of under 300 nM.
CC(C)(C)c1ccc(-c2cn3nc(CO)cc3c(=O)[nH]2)cc1 [Compound A18, 6-(4-tert-butyl-phenyl)-2-hydroxymethyl-5H-pyrazolo[1,5-a]pyrazin-4-one] showed an IC50 of under 300 nM.
In the case of Cc1cc2c(=O)[nH]c(-c3ccc(C(C)(C)C)cc3)cn2c1 [Compound A38, 3-(4-tert-butyl-phenyl)-7-methyl-2H-pyrrolo[1,2-a]pyrazin-1-one], the IC50 is reported as under 300 nM.

From US9120805B2, “Substituted pyrrolo[1,2-A]pyrazin-1-ones and pyrazolo[1,5-A]pyrazin-4-ones as inhibitors of tankyrase and poly(ADP-ribose)polymerase activity” (Merck Patent GmbH, priority 2012, dated 2015)
